Measured values as given in PubChem BioAssay AID330 (DTP/NCI, 2004).
Several values for one entry are separate records, joined by “and”; a condition that tells them apart may be missing. Equal values may be shown once. Toxic doses and inconclusive results are not listed. The calls were made as follows: active = survival T/C of 150% or more; inactive = T/C below 125% in these data. Peptide text beside a SMILES is read from it. * marks the point of attachment. Boc = CC(C)(C)OC(=O)*

Test system: P388 leukemia ip, CD2F1 mice, survival T/C
Test: NCI In Vivo Anticancer Drug Screen. Data for tumor model P388 Leukemia (intraperitoneal) in CD2F1 (CDF1) mice
Details: endpoint: median survival time, higher = longer survival
Method in brief: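 Mice carrying the transplanted tumor received test compound or vehicle. Survival was recorded in each group, and the value is the treated-group measurement divided by that of the vehicle-treated control group.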

[1] = dose: 12.5 mg/kg/injection, schedule: Q01DX009 (ip), vehicle: distilled water + Tween-80
[2] = dose: 25.0 mg/kg/injection, schedule: Q01DX009 (ip), vehicle: distilled water + Tween-80
[3] = dose: 50.0 mg/kg/injection, schedule: Q01DX005 (ip), vehicle: saline with Tween-80
[4] = dose: 100.0 mg/kg/injection, schedule: Q01DX005 (ip), vehicle: saline with Tween-80
[5] = dose: 200.0 mg/kg/injection, schedule: Q01DX005 (ip), vehicle: saline with Tween-80
[6] = dose: 50.0 mg/kg/injection, schedule: Q01DX005 (ip), vehicle: Klucel (hydroxypropylcellulose) (HPC)
[7] = dose: 100.0 mg/kg/injection, schedule: Q01DX005 (ip), vehicle: Klucel (hydroxypropylcellulose) (HPC)
[8] = dose: 200.0 mg/kg/injection, schedule: Q01DX005 (ip), vehicle: Klucel (hydroxypropylcellulose) (HPC)

Measured: T/C

CCN(CC)CC(C)Nc1cc(C)nc2c1ccc1c2ccc2c(NC(C)CN(CC)CC)cc(C)nc21 (stereo not given)
inactive: [1] 113 % of control | [2] 111 % of control | dose: 50.0 mg/kg/injection, schedule: Q01DX009 (ip), vehicle: distilled water + Tween-80 119 % of control

COC(=O)C(NC(=O)C(Cc1c[nH]c2ccccc12)NC(=O)OC(C)(C)C)C(C)C (stereo not given)
inactive: dose: 12.5 mg/kg/injection, schedule: Q01DX009 (ip), vehicle: other 96 % of control | dose: 25.0 mg/kg/injection, schedule: Q01DX009 (ip), vehicle: other 90 % of control | dose: 50.0 mg/kg/injection, schedule: Q01DX009 (ip), vehicle: other 91 % of control | dose: 100.0 mg/kg/injection, schedule: Q01DX009 (ip), vehicle: other 109 % of control | dose: 200.0 mg/kg/injection, schedule: Q01DX009 (ip), vehicle: other 114 % of control

N#CCCn1nc(Sc2ccccc2)c(=O)[nH]c1=O
inactive: [3] 95 % of control | dose: 60.0 mg/kg/injection, schedule: Q01DX005 (ip), vehicle: saline with Tween-80 100 % of control | [4] 94 % of control | dose: 120.0 mg/kg/injection, schedule: Q01DX005 (ip), vehicle: saline with Tween-80 100 % of control | [5] 94 % of control | dose: 240.0 mg/kg/injection, schedule: Q01DX005 (ip), vehicle: saline with Tween-80 95 % of control

O=C(OCCc1c[nH]c2ccccc12)N(CCCl)CCCl
inactive: dose: 1.56 mg/kg/injection, schedule: Q01DX009 (ip), vehicle: distilled water + Tween-80 101 % of control | dose: 3.12 mg/kg/injection, schedule: Q01DX009 (ip), vehicle: distilled water + Tween-80 103 % of control | dose: 6.25 mg/kg/injection, schedule: Q01DX009 (ip), vehicle: distilled water + Tween-80 105 % of control | [1] 109 % of control | [2] 111 % of control

C/C=C/CCC(=O)CC(O)CCO (stereo not given)
inactive: dose: 12.5 mg/kg/injection, schedule: Q01DX005 (ip), vehicle: Klucel (hydroxypropylcellulose) (HPC) 101 % of control | dose: 25.0 mg/kg/injection, schedule: Q01DX005 (ip), vehicle: Klucel (hydroxypropylcellulose) (HPC) 98 % of control | [6] 104 % of control and 89 % of control | [7] 104 % of control | [8] 101 % of control | dose: 400.0 mg/kg/injection, schedule: Q01DX005 (ip), vehicle: Klucel (hydroxypropylcellulose) (HPC) 111 % of control

COC(=O)C(Cc1ccccc1)NC(=O)C(Cc1ccccc1)NC(=O)OC(C)(C)C (stereo not drawn) (Boc-Phe-Phe-OMe; configuration not given here)
inactive: [6] 97 % of control | [7] 95 % of control | [8] 101 % of control

COc1ccccc1NC(=S)N/N=C\c1nc2ccccc2c2ccccc12
inactive: dose: 75.0 mg/kg/injection, schedule: Q04DX002 (ip), vehicle: Klucel (hydroxypropylcellulose) (HPC) 99 % of control | dose: 150.0 mg/kg/injection, schedule: Q04DX002 (ip), vehicle: Klucel (hydroxypropylcellulose) (HPC) 96 % of control | dose: 300.0 mg/kg/injection, schedule: Q04DX002 (ip), vehicle: Klucel (hydroxypropylcellulose) (HPC) 96 % of control

O=C(O)Cc1cccc(=O)c(O)c1C(=O)O
inactive: [3] 98 % of control | [4] 104 % of control | [5] 96 % of control

O=c1c(F)cn(-c2ccco2)c(=O)n1-c1ccco1
inactive: dose: 37.5 mg/kg/injection, schedule: Q04DX003 (ip), vehicle: saline + alcohol 103 % of control | dose: 75.0 mg/kg/injection, schedule: Q04DX003 (ip), vehicle: saline + alcohol 100 % of control | dose: 150.0 mg/kg/injection, schedule: Q04DX003 (ip), vehicle: saline + alcohol 96 % of control

Oc1ccc(/C=N/NC(=S)Nc2ccccc2)nc1
inactive: dose: 265.0 mg/kg/injection, schedule: Q04DX003 (ip), vehicle: Klucel (hydroxypropylcellulose) (HPC) 114 % of control | dose: 400.0 mg/kg/injection, schedule: Q04DX003 (ip), vehicle: Klucel (hydroxypropylcellulose) (HPC) 123 % of control | dose: 600.0 mg/kg/injection, schedule: Q04DX003 (ip), vehicle: Klucel (hydroxypropylcellulose) (HPC) 117 % of control
